*1 amine or outer side, *2 acyl side, *3 side chain or, on linkers, in order; H or OH if unused. Where a SMILES comes first, the peptide text is derived from it. Side-chain parts run from the residue outwards. [ ]: non-standard residue; d: D form. The star is where a group is joined. C18 diacid = O=C(O)CCCCCCCCCCCCCCCCC(=O)*; γGlu = O=C(O)[C@H](CCC(=O)[*:2])N[*:1]; αMeL = CC(C)C[C@](C)(N)C(=O)O; Api = NC1(C(=O)O)CCNCC1; Abu = CC[C@H](N)C(=O)O; Dap = NC[C@H](N)C(=O)O; Pentanoyl = CCCCC(=O)*; AEEA = NCCOCCOCC(=O)O
Key:
CFR1R receptor = target: T1, CFR1R receptor (Homo sapiens, UniProt P34998); test: Activity at anti-target CFR1R receptor, cAMP assay in CRF1R-overexpression CHO-K1 cells; assay type: cell-based; conditions: 100% = Sauvagine at 100 nM; for EC50: cAMP
T1 construct: host or cells: CHO-K1 (clone 2)
T1 sequence (P34998 24-415): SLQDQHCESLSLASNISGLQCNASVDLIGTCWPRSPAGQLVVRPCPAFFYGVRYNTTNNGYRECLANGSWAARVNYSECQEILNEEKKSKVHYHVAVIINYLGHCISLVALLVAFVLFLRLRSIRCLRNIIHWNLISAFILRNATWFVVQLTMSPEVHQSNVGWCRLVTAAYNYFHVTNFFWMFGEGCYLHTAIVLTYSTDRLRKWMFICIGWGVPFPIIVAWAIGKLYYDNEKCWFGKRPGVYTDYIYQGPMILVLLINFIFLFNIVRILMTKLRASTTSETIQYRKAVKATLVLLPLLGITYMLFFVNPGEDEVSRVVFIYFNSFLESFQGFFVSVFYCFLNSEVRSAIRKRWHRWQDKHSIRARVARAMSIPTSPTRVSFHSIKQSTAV
How it was run: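 Signal is normalised to 100 nM Sauvagine, taken as 100% activation, in clone 2 cells plated at a final 4000 cells/well from frozen stocks.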

human CRF2a receptor = target: T2, human CRF2a receptor (Homo sapiens, UniProt Q13324); test: Activity at human CRF2a receptor, cAMP functional assay in TeloHEAC cells; assay type: cell-based; conditions: TeloHEAC cells stably expressing human CRF2a receptor, relative to urocortin 2 (100 nM = 100%)
T2 construct: expressed in transfected cells; host or cells: TeloHEAC cells
T2 sequence (Q13324 1-411): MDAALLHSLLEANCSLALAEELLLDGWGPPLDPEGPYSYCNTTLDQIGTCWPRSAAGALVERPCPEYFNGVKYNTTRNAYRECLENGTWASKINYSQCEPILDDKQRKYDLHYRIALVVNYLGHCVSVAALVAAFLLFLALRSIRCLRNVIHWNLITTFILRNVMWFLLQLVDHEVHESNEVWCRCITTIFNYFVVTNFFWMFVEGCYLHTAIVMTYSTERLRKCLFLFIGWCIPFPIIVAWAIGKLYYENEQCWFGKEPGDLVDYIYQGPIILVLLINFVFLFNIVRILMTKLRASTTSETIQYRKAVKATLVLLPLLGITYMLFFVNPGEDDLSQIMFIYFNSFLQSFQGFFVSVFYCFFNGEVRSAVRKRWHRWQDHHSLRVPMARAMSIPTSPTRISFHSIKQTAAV
How it was run: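 TeloHEAC cells stably expressing human CRF2a (10000 cells/well) were treated with 16-point 1:2 compound dilutions in HBSS/20 mM HEPES with IBMX for 30 min at 37° C. cAMP was read by HTRF (665/620 nm ratio). EC50 was the concentration giving 50% activation, with 100 nM urocortin 2 set as 100%.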

Row | Structure (SMILES) | Emax (% I) (CFR1R receptor) | EC50 (CFR1R receptor) [nM] | EC50 (human CRF2a receptor) [nM]
1 | CC[C@H](C)[C@H](NC(C)=O)C(=O)N[C@H](C(=O)N[C@@H](CC(C)C)C(=O)N[C@@H](CO)C(=O)N[C@@H](CC(C)C)C(=O)N[C@@H](CC(=O)O)C(=O)N[C@@H](C(=O)N1CCC[C@H]1C(=O)N[C@H](C(=O)N[C@@H](CCCCN)C(=O)N[C@@H](CC(C)C)C(=O)N[C@@H](CCCCNC(=O)CC[C@H](NC(=O)CCCCCCCCCCCCCCCCC(=O)O)C(=O)O)C(=O)N[C@@H](CCCCN)C(=O)N[C@H](C(=O)N[C@@H](CC(C)C)C(=O)N[C@@H](CC(C)C)C(=O)N[C@@H](CCC(=O)O)C(=O)N[C@@H](CCC(N)=O)C(=O)N[C@@H](CCC(=O)O)C(=O)N[C@@H](CCCCN)C(=O)N[C@@H](CCC(N)=O)C(=O)N[C@@H](CCCCN)C(=O)N[C@@H](CCCCN)C(=O)N[C@@H](CCC(N)=O)C(=O)N[C@@H](CCCNC(=N)N)C(=O)N[C@@H](CCC(=O)O)C(=O)N[C@@H](CCC(N)=O)C(=O)N[C@@H](C)C(=O)N[C@@H](CCC(=O)O)C(=O)N[C@H](C(=O)N[C@@H](CC(N)=O)C(=O)N[C@@H](C)C(=O)N[C@@H](CCC(N)=O)C(=O)N[C@H](C(=O)N[C@@H](CC(C)C)C(=O)N[C@@H](C)C(=O)N[C@@H](CCC(N)=O)C(=O)N[C@H](C(N)=O)C(C)C)[C@@H](C)CC)[C@@H](C)O)[C@@H](C)CC)[C@@H](C)CC)C(C)C)C(C)C [compound 126] (Ac-IVLSLD[dV]PIKLK([γGlu-C18 diacid])KILLEQEKQKKQREQAETNAQILAQV-NH2) | 20 | > 250 | 0.05
2 | CC[C@H](NC(=O)[C@H](CC(N)=O)NC(=O)[C@@H](NC(=O)[C@H](CCC(=O)O)NC(=O)[C@H](C)NC(=O)[C@H](CCC(N)=O)NC(=O)[C@H](CCC(=O)O)NC(=O)[C@H](CCCNC(=N)N)NC(=O)[C@H](CCC(N)=O)NC(=O)[C@H](CCCCN)NC(=O)[C@H](CCCCN)NC(=O)[C@H](CCC(N)=O)NC(=O)[C@H](CCCCN)NC(=O)[C@H](CCC(=O)O)NC(=O)[C@H](CCC(N)=O)NC(=O)[C@H](CCC(=O)O)NC(=O)[C@H](CC(C)C)NC(=O)[C@H](CC(C)C)NC(=O)[C@@H](NC(=O)[C@H](CCCCN)NC(=O)[C@H](CCCCNC(=O)CC[C@H](NC(=O)CCCCCCCCCCCCCCCCC(=O)O)C(=O)O)NC(=O)[C@H](CC(C)C)NC(=O)[C@H](CCCCN)NC(=O)[C@@H](NC(=O)[C@@H]1CCCN1C(=O)[C@H](NC(=O)[C@H](CC(=O)O)NC(=O)[C@H](CC(C)C)NC(=O)[C@H](CO)NC(=O)[C@H](CC(C)C)NC(=O)[C@@H](NC(=O)[C@@H](NC(C)=O)[C@@H](C)CC)C(C)C)C(C)C)[C@@H](C)CC)[C@@H](C)CC)[C@@H](C)O)C(=O)N[C@@H](CCC(N)=O)C(=O)N[C@H](C(=O)N[C@@H](CC(C)C)C(=O)N[C@@H](C)C(=O)N[C@@H](CCC(N)=O)C(=O)N[C@H](C(N)=O)C(C)C)[C@@H](C)CC [compound 127] (Ac-IVLSLD[dV]PIKLK([γGlu-C18 diacid])KILLEQEKQKKQREQAETN[Abu]QILAQV-NH2) | 11 | > 250 | 0.08

Next, values leading:

Row | Emax (% I) (CFR1R receptor) | EC50 (CFR1R receptor) [nM] | EC50 (human CRF2a receptor) [nM] | Structure (SMILES)
3 | 14 | > 250 | 0.38 | CCCCC(=O)N[C@H](C(=O)N[C@@H](CC(C)C)C(=O)N[C@@H](CO)C(=O)N[C@@H](CC(C)C)C(=O)N[C@@H](CC(=O)O)C(=O)N[C@@H](C(=O)N1CCC[C@H]1C(=O)N[C@H](C(=O)N[C@@H](CCCCN)C(=O)N[C@@](C)(CC(C)C)C(=O)N[C@@H](CCCCNC(=O)COCCOCCNC(=O)COCCOCCNC(=O)CC[C@H](NC(=O)CCCCCCCCCCCCCCCCC(=O)O)C(=O)O)C(=O)N[C@@H](CCCCN)C(=O)N[C@H](C(=O)N[C@@H](CC(C)C)C(=O)N[C@@H](CC(C)C)C(=O)N[C@@H](CCC(=O)O)C(=O)N[C@@H](CCC(N)=O)C(=O)N[C@@H](CCC(=O)O)C(=O)N[C@@H](CCCCN)C(=O)N[C@@H](CCC(N)=O)C(=O)N[C@@H](CCCCN)C(=O)N[C@@H](CCCCN)C(=O)N[C@@H](CCC(N)=O)C(=O)N[C@@H](CCCNC(=N)N)C(=O)N[C@@H](CCC(=O)O)C(=O)N[C@@H](CCC(N)=O)C(=O)N[C@@H](C)C(=O)N[C@@H](CCC(=O)O)C(=O)N[C@H](C(=O)N[C@@H](CC(N)=O)C(=O)N[C@H](C(=O)N[C@@H](CCC(N)=O)C(=O)N[C@H](C(=O)N[C@@H](CC(C)C)C(=O)N[C@@H](C)C(=O)N[C@@H](CCC(N)=O)C(=O)N[C@H](C(N)=O)C(C)C)[C@@H](C)CC)C(C)C)[C@@H](C)O)[C@@H](C)CC)[C@@H](C)CC)C(C)C)C(C)C [compound 124] (Pentanoyl-VLSLD[dV]PIK[αMeL]K([AEEA-AEEA-γGlu-C18 diacid])KILLEQEKQKKQREQAETNVQILAQV-NH2)
4 | 10 | > 250 | 0.17 | CC[C@H](C)[C@H](NC(C)=O)C(=O)N[C@H](C(=O)N[C@@H](CC(C)C)C(=O)N[C@@H](CO)C(=O)N[C@@H](CC(C)C)C(=O)N[C@@H](CC(=O)O)C(=O)N[C@@H](C(=O)N1CCC[C@H]1C(=O)N[C@H](C(=O)N[C@@H](CCCCN)C(=O)N[C@@H](CC(C)C)C(=O)N[C@@H](CCCCNC(=O)CC[C@H](NC(=O)CCCCCCCCCCCCCCCCC(=O)O)C(=O)O)C(=O)N[C@@H](CCCCN)C(=O)N[C@H](C(=O)N[C@@H](CC(C)C)C(=O)N[C@@H](CC(C)C)C(=O)N[C@@H](CCC(=O)O)C(=O)N[C@@H](CCC(N)=O)C(=O)N[C@@H](CCC(=O)O)C(=O)N[C@@H](CCCCN)C(=O)N[C@@H](CCC(N)=O)C(=O)N[C@@H](CCCCN)C(=O)N[C@@H](CCCCN)C(=O)N[C@@H](CCC(N)=O)C(=O)N[C@@H](CCCNC(=N)N)C(=O)N[C@@H](CCC(=O)O)C(=O)N[C@@H](CCC(N)=O)C(=O)N[C@@H](C)C(=O)N[C@@H](CCC(=O)O)C(=O)N[C@H](C(=O)N[C@@H](CC(N)=O)C(=O)N[C@@H](CN)C(=O)N[C@@H](CCC(N)=O)C(=O)N[C@H](C(=O)N[C@@H](CC(C)C)C(=O)N[C@@H](C)C(=O)N[C@@H](CCC(N)=O)C(=O)N[C@H](C(N)=O)C(C)C)[C@@H](C)CC)[C@@H](C)O)[C@@H](C)CC)[C@@H](C)CC)C(C)C)C(C)C [compound 128] (Ac-IVLSLD[dV]PIKLK([γGlu-C18 diacid])KILLEQEKQKKQREQAETN[Dap]QILAQV-NH2)
5 | 39 | – | 0.14 | CC[C@H](C)[C@H](NC(C)=O)C(=O)N[C@H](C(=O)N[C@@H](CC(C)C)C(=O)N[C@@H](CO)C(=O)N[C@@H](CC(C)C)C(=O)N[C@@H](CC(=O)O)C(=O)N[C@@H](C(=O)N1CCC[C@H]1C(=O)N[C@H](C(=O)N[C@@H](CCCCN)C(=O)N[C@@H](CC(C)C)C(=O)N[C@@H](CCCCNC(=O)CC[C@H](NC(=O)CCCCCCCCCCCCCCCCC(=O)O)C(=O)O)C(=O)N[C@@H](CCCCN)C(=O)N[C@H](C(=O)N[C@@H](CC(C)C)C(=O)N[C@@H](CC(C)C)C(=O)N[C@@H](CCC(=O)O)C(=O)N[C@@H](CCC(N)=O)C(=O)N[C@@H](CCC(=O)O)C(=O)N[C@@H](CCCCN)C(=O)N[C@@H](CCC(N)=O)C(=O)N[C@@H](CCCCN)C(=O)N[C@@H](CCCCN)C(=O)N[C@@H](CCC(N)=O)C(=O)N[C@@H](CCCNC(=N)N)C(=O)N[C@@H](CCC(=O)O)C(=O)N[C@@H](CCC(N)=O)C(=O)N[C@@H](C)C(=O)N[C@@H](CCC(=O)O)C(=O)N[C@H](C(=O)N[C@@H](CC(N)=O)C(=O)NC1(C(=O)N[C@@H](CCC(N)=O)C(=O)N[C@H](C(=O)N[C@@H](CC(C)C)C(=O)N[C@@H](C)C(=O)N[C@@H](CCC(N)=O)C(=O)N[C@H](C(N)=O)C(C)C)[C@@H](C)CC)CCNCC1)[C@@H](C)O)[C@@H](C)CC)[C@@H](C)CC)C(C)C)C(C)C [compound 129] (Ac-IVLSLD[dV]PIKLK([γGlu-C18 diacid])KILLEQEKQKKQREQAETN[Api]QILAQV-NH2)

From patent US20260001928A1 (CORTERIA PHARMACEUTICALS, priority 2022, published 2026)
